Measurements as given in ChEMBL document CHEMBL1145692, “New Type of Mono-tetrahydrofuran Ring Acetogenins from Goniothalamus donnaiensis” (J Nat Prod, 1997).

Key:
KB [1] = test: Cytotoxicity against human KB cells; format: functional, cell-based
HCT-8 = test: Cytotoxicity against human HCT8 cells; format: functional, cell-based
KB [2] = test: Cytotoxicity against human KB cells at 10 ug/ml; format: functional

Row | Structure (SMILES) | IC50 (KB [1]) [µg/mL] | IC50 (HCT-8) [µg/mL] | inhibition at 10 µg/mL (KB [2]) [%]
1 | CCCCCCCCCCCC[C@@H](O)[C@H]1CC[C@H]([C@H](O)CCCCCCCCCC[C@@H](O)CC2=CC(C)(O)OC2=O)O1 (mixture of isomers) | < 1 | < 10 | –
2 | CCCCCCCCCCCCCC[C@H](O)[C@@H](O)CC[C@H](O)[C@@H]1CC[C@@H](CCCCC[C@@H](O)CC2=CC(C)(O)OC2=O)O1 (mixture of isomers) [DONNAIENIN B/34-EPI-DONNAIENIN B] | – | – | 53.8
